Test results from patent US20030180349A1, “Respiratory infection prevention and treatment with terpene-containing compositions” (priority 2001, published 2003).

Experiments:
[1] = Solution levels of terpenes in water (no surfactant, high-shear blending); assay type: physicochemical; details: for Solution levels for various terpenes: Level: maximum level solubilized in water without surfactant
[2] = Break down / loss of potency of terpenes in the presence of oxygen; assay type: physicochemical; details: 500 ppm solution
Source text: Terpenes will break down in the presence of oxygen. Citral, for example, is an aldehyde and will decay (oxygenate) over a period of days.

erythrocytes = assay type: cell-based, Human
Protocol: These mixtures were incubated for 20 minutes.

E. coli = details: cited from earlier work
Mycoplasma iowae = experiment: Effect of citral on growth of Mycoplasma iowae (color changing units); assay type: cell-based
Protocol: M. iowae is a known avian respiratory disease agent. […] Mycoplasma iowae were incubated at 37° C. in R2 (Chen, T. A., J. M. Wells, and C. H. Liao. 1982. Cultivation in vitro: spiroplasmas, plant mycoplasmas, and other fastidious, walled prokaryotes. pp. 417-446. in Phytopathogenic prokaryotes, V. 2, M. S. Mount and G. H. Lacy (ed.), Academic Press, New York) broth. One to 2-day old cultures were observed under a dark-field microscope to ensure cells were in filamentous form before treatment. Cell suspensions were vortexed to ensure they were evenly mixed before and an aliquot of 0.5 mL was dispensed into a sterile tube. […] The treated cell suspension was incubated for 24 hrs before the color changing units (CCUs) were determined by a 10-fold serial dilution in fresh R2. All treatments were duplicated. […] All culture tubes were incubated for 15 days before final readings were taken. A comparison was made of the effect of 24-hr and 48-hr treatment times. The CCUs were determined by taking treated cell suspension from the same treated tube 24 hrs or 48 hrs after treatment.

H. pylori = details: cited from earlier work
Mycoplasma pneumoniae = experiment: In vitro effectiveness against Mycoplasma pneumoniae (color change); assay type: cell-based; details: 40 hours treatment
Protocol: Terpene beta-ionone or L-carvone was first mixed well with Tween® 80 to have a final Tween® 80 concentration of 5%. This mixture was then used to make concentrations of 2500 ppm in sterile phosphate buffer saline (PBS) by blending the mixture in PBS for 40 seconds. This 2500 ppm solution was then diluted to 500 ppm, 250 ppm, and 125 ppm with PBS.
PBS containing 25 ppm Tween® 80 or PBS alone was used to treat cells suspension as controls.
A log phase (2-3-day old) culture of Mycoplasma pneumoniae was mixed with each of the above three concentrations of terpene at 1:1 (volume) ratio (in this case, 1 mL of cell suspension was added to 1 mL of terpene).
The culture and terpene mixture was then incubated at 37° C. for 40 hours. After 40 hours of treatment, 10-fold serial dilution was performed to 10 (−10) by first taking 0.1 mL of the treated culture suspension was added into 0.9 mL of fresh SP4 (Whitcomb (1983); SP4 media is commercially available (Remel, Lenexa, Kans., USA)). All the tubes were then incubated at 37° C., and a color change of the medium was used for the indication of the cells that either were killed or survived from the treatment. Color change was from red to yellow because Mycoplasma pneumoniae produces acid during its growth.

[3] = 62.5 ppm (5% Tween 80, PBS), three days after 10-fold dilution
[4] = 62.5 ppm, 6 days after 10-fold dilution
[5] = 125 ppm (5% Tween 80, PBS), three days after 10-fold dilution
[6] = 125 ppm, 6 days after 10-fold dilution
[7] = 250 ppm (5% Tween 80, PBS), three days after 10-fold dilution
[8] = 250 ppm, 6 days after 10-fold dilution

Molecule | Solution levels for various terpenes: Level [1] [ppm] | Concentration at which erythrocytes lyse (erythrocytes) [ppm] | color change of medium / killing effect (Mycoplasma pneumoniae; [3]) | color change of medium / killing effect (Mycoplasma pneumoniae; [4]) | color change of medium / killing effect (Mycoplasma pneumoniae; [5]) | color change of medium / killing effect (Mycoplasma pneumoniae; [6]) | color change of medium / killing effect (Mycoplasma pneumoniae; [7]) | color change of medium / killing effect (Mycoplasma pneumoniae; [8]) | other results
C=C(C)C1CC=C(C)C(=O)C1 (stereo not drawn) [Carvone] | 500 |  |  |  |  |  |  |  | 
CC(C)=CCCC(C)=CC=O [Citral, 3,7-dimethyl-2,6-octadien-1-al] |  |  |  |  |  |  |  |  | time in which solution loses half its potency [2]: 2-3 weeks; stable suspension can be formed up to ([1]; suspension): about 2500 ppm; concentration that will lyse human erythrocytes (erythrocytes; human, 20 min): about 1000 ppm; citral concentration with bactericidal effect (E. coli): 0.08%; citral in growth media that reduced the concentration of E. coli (E. coli): more than 0.01%; color changing units after treatment (Mycoplasma iowae; 62.5 ppm, 24 hr (Table 4)): 10^6 CCUs; color changing units after treatment (Mycoplasma iowae; 62.5 ppm, 24 hrs (Table 3)): 10^8 CCUs; color changing units after treatment (Mycoplasma iowae; 62.5 ppm, 48 hr (Table 4)): 10^6 CCUs; color changing units after treatment (Mycoplasma iowae; 125 ppm, 24 hr (Table 4)): 10^7 CCUs; color changing units after treatment (Mycoplasma iowae; 125 ppm, 24 hrs (Table 3)): 10^8 CCUs; color changing units after treatment (Mycoplasma iowae; 125 ppm, 48 hr (Table 4)): 10^6 CCUs; color changing units after treatment (Mycoplasma iowae; 250 ppm, 24 hr (Table 4)): 10^5 CCUs; color changing units after treatment (Mycoplasma iowae; 250 ppm, 24 hrs (Table 3)): 10^7 CCUs; color changing units after treatment (Mycoplasma iowae; 250 ppm, 48 hr (Table 4)): 10^4 CCUs
CC(C)=CCC/C(C)=C/CO [Geraniol] | 500 |  |  |  |  |  |  |  | concentration that inhibited the growth of H. pylori in vitro (H. pylori): 2 mg/L
CC(=O)/C=C/C1=C(C)CCCC1(C)C [b-ionone] | 500 | 2000 | did not change color at all | only the first tube | did not change color at all | may have completely killed all cells | did not change color at all | may have completely killed all cells | 
L-carvone |  | 250 | no killing effects | second and third tube | no killing effects | second and third tube | no killing effects | second and third tube | 
Terpeniol | 500 |  |  |  |  |  |  |  | 
